Experimental data reported in US20130296330A1, “MACROCYCLIC INTEGRASE INHIBITORS FOR USE IN THE TREATMENT OF FELINE IMMUNODEFICIENCY VIRUS” (ELANCO ANIMAL HEALTH IRELAND LIMITED, priority 2011, published 2013).

Tests used:
[1] = test system: FIV strain Thymo-113; assay: Inhibitory activity on FIV replication wild type, feline thymocytes (FIV p24 ELISA); assay type: cell-based; conditions: Feline immunodeficiency virus, Thymocyte, 144 h, primary feline thymocytes, FIV strain Thymo-113, 6 days, read-out: EC50 (concentration required to reduce antigen production by 50%)
Protocol: (§1) The anti-FIV activity of the compounds was tested in primary feline thymocytes isolated form specific pathogen free cats, and in Crandell feline kidney (CRFK) cells.
Feline thymocytes were maintained in complete Iscove's Modified Medium (Iscoves medium supplemented with GlutamaxI (Invitrogen/Gibco BRL), 10% inactivated fetal calf serum, antibiotics (100 IU/ml penicillin and 100 μg/ml streptomycin) 2-Mercapto-ethanol (50 μM) and 100 IU/ml human recombinant IL-2 (Chiron). Cells were seeded into a 96 well plate (5×10^4 cells per well) and pre-incubated with four-fold dilutions of the antiviral compound. Plates were incubated for 1 hour in a humidified incubator with a 5% CO2 atmosphere at 37° C. Subsequently, cells were inoculated with 100 TCID50 of FIV strain Thymo-113 in the presence of the different concentrations of compound. After 2 hours cells were washed twice in Iscove's medium and new medium containing the different concentrations of compound were added. After incubation for 6 days the supernatant was harvested and the amount of virus within the supernatant determined using a FIV p24 ELISA. The 50% effective concentration (EC50) was defined as the concentration of the compound required to reduce the antigen production by 50% compared to untreated controls.

[2] = test system: FIV strain Utrecht-113; assay: Inhibitory activity on FIV replication wild type, CRFK cells (FIV p24 ELISA); assay type: cell-based; conditions: Feline immunodeficiency virus, 144 h, FIV strain Utrecht-113, 6 days, read-out: EC50 (concentration required to reduce antigen production by 50%)
Protocol: as §1
Crandell Feline Kidney (CRFK) cells were maintained in DMEM (Dulbecco's Modified Eagle's Medium (Lonza) supplemented with, 10% inactivated fetal calf serum, antibiotics (100 IU/ml penicillin and 100 μg/ml streptomycin). Cells were seeded into a 96 well plate (5×10^4 cells per well) and pre-incubated with four-fold dilutions of the antiviral compound for 1 hours. The CrFK cells were washed with PBS DEAE 50 mg/l, inoculated with 100 TCID50 of FIV strain Utrecht-113 in the presence of the different concentrations of compound and subsequently incubated for 2 hours in a humidified incubator with a 5% CO2 atmosphere at 37° C. After 2 hours cells were washed twice in DMEM medium and new medium containing the different concentrations of compound were added. After incubation for 6 days the supernatant was harvested and the amount of virus within the supernatant determined using a FIV p24 ELISA. The 50% effective concentration (EC50) was defined as the concentration of the compound required to reduce the antigen production by 50% compared to untreated controls.

[3] = Cellular cytotoxic activity, mock-infected CRFK cells, MTT assay; assay type: cell-based, feline; conditions: cat, read-out: CC50 (50% cytotoxic concentration)
Protocol: (§2) The cytotoxicity of the compounds was determined in parallel to the experiments under assay 1 on mock-infected feline thymocytes respectively CRFK cells cultured in the presence or absence of different concentrations of the compound.
After 6 days of incubation cell viability of the CRFK cells was measured by using a colorimetric MTT assay. A solution of 3-(4,5-dimethylthiazol-2-yl)-2,5-diphenyltetrazolium bromide (MTT) in PBS at a final concentration of 0.5 mg/ml was added to each well. After 2 hours incubation at 37 C and 5% CO2, the medium containing the MTT was removed and the cells were lysed by addition of 200 μl DMSO to each well. Following 10 minutes incubation at room temperature on a rocking plate, the optical density (OD) values at […] were determined. The compound concentration that decreased the viability of 50% of the cells was defined as the 50% cytotoxic concentration (CC50).

[4] = Cellular cytotoxic activity, mock-infected feline thymocytes, trypan blue exclusion staining; assay type: cell-based; conditions: cat, read-out: CC50 (50% cytotoxic concentration)
Protocol: as §2
Cytotoxicity on feline thymocytes was determined by trypan blue exclusion staining whereby the CC50 for compound (6) was measured as >10 nM.

EC50 [1]: 20 nM
EC50 [2]: 20 nM
SMILES: CN1c2nc(c(O)c3ncccc23)C(=O)NCc2ccc(F)cc2C(=O)NCCCCCS1(=O)=O [Compound 6]
CC50 at 6 days [3]: > 10 nM
CC50 [4]: > 10 nM
